The source of these data is patent US10413593B2 (priority 2014, dated 2019).

One may read the EC50 as the midpoint of the concentration-response curve.

*1 amine or outer side, *2 acyl side, *3 side chain or, on linkers, in order; H or OH if unused. Where a SMILES comes first, the peptide text is derived from it. Where no end group is shown, it is not given here. Side-chain parts run from the residue outwards. [ ]: non-standard residue; d: D form. The star is where a group is joined. C16 = palmitoyl, CCCCCCCCCCCCCCCC(=O)*; γGlu = O=C(O)[C@H](CCC(=O)[*:2])N[*:1]; X1 = O=C(C(N[*:1])C(O)c1ccccc1)[*:2]; Palmitoyl = CCCCCCCCCCCCCCCC(=O)*

A short description of assay [1]: Second study in DIO mice: body weight change percent relative to vehicle (Example 19, FIG. 2). As to conditions: eight days. It is filed as in vivo, mice (strain C57Bl6/NTac). On the procedure:
In addition, the peptide of SEQ ID NO: 8 was administered at 15 nmol/kg, while the peptide of SEQ ID NOs: 10 and 11 were administered at 3 nmol/kg. Body weight was measured daily for eight days and body weight change is expressed as percent relative to vehicle (FIG. 2).

Assay [2] is described as follows: Cumulative body weight change in DIO mice, daily s.c. dosing for nine days (Example 18, FIG. 1). Conditions: 9 nmol/kg s.c. daily, day 9. It is filed as in vivo, mice (strain C57Bl6/NTac). On the procedure: Mice were administered a vehicle control or a dose of a peptide daily for nine days. […] The peptide of SEQ ID NO: 9 was administered at doses of 9 and 25 nmol/kg. Cumulative body weight change (grams) was measured each day of the study except on day 3. Results are shown in FIG. 1 and are expressed as mean±SEM.

Assay [3] is described as follows: Ambient glucose in DIO mice (Example 21, FIG. 4). It is filed as in vivo, mice (strain C57Bl6/NTac). Conditions: for change in ambient glucose compared to vehicle: day 9 of dosing. On the procedure:
In addition to cumulative body weight change, ambient glucose levels of the DIO mice (strain C57Bl6/NTac) were measured periodically throughout the study.

In the next assay the target is T1, human GCGR (Homo sapiens, UniProt P47871).
T1 construct: expressed in transfected cells
Kind of assay: cAMP assay in cells expressing human GCGR (HitHunter cAMP XS). As to conditions: for hGCGR/hGLP1R (hTone): ratio of EC50 at human GCGR to EC50 at human GLP1R; for EC50: cAMP production, cells expressing human GCGR, assay buffer with 20% human serum, 1 hour. It is filed as cell-based. On the technique in general: Cyclic AMP is a second messenger, typically raised through Gs and lowered through Gi signalling.

A further assay addresses T2, human GLP-1R (Homo sapiens, UniProt P43220).
T2 construct: expressed in transfected cells
Kind of assay: cAMP assay in cells expressing human GLP-1R (HitHunter cAMP XS). It is filed as cell-based. As to conditions: cAMP production, assay buffer with 20% human serum, 1 hour, read-out: GLPR1 EC50 (nM) human.

T1 sequence (P47871 26-477): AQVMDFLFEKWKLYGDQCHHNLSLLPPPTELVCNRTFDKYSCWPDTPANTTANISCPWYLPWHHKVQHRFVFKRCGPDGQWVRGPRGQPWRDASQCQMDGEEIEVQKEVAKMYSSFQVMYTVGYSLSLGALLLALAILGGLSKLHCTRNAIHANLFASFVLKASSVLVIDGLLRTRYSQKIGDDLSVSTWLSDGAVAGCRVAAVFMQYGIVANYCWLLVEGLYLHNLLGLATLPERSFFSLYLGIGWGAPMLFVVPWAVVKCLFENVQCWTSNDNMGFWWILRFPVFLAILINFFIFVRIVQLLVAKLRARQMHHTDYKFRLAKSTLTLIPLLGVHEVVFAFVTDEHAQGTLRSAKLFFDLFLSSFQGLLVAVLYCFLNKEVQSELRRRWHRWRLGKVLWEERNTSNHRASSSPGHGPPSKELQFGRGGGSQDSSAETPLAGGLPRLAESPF
T2 sequence (P43220 24-463): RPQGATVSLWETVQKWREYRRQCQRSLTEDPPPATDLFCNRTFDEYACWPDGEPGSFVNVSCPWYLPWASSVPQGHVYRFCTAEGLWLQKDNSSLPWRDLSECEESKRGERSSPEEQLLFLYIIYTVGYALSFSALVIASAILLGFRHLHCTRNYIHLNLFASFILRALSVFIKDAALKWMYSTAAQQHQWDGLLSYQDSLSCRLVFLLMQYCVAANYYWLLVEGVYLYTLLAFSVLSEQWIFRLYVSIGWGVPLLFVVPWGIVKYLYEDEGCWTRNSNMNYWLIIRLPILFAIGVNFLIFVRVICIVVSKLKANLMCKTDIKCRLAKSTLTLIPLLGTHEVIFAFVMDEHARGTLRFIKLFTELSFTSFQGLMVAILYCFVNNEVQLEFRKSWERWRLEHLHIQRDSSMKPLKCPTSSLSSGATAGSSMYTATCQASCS
Procedure for human GCGR: The cAMP protocol was as follows.
(§1) Peptides were dissolved in 100% DMSO and serially diluted to generate 11 point titrations. The peptide solutions were then transferred into 384-well assay plates (150 nL/well). Assay ready frozen cells expressing human GLP-1R or human GCGR were suspended in growth media consisting of DMEM/F12 medium (GIBCO), 10% FBS (GIBCO), lx P/S (GIBCO), 800 μg/mL Geneticin (GIBCO), and 300 μg/mL Hygromycin (Invitrogen). Cells were then diluted in assay buffer consisting of PBS (GIBCO), 7.5% BSA (Perkin Elmer), 100 μM RO 20-1724 (Sigma), and 20% human serum (MP Biomedical). The cell suspensions (15 μL) were then added to the assay plates containing the peptide solutions (30,000 cells/well for human GCGR; 20,000 cells/well for GLP1R). The cells were incubated for 1 hour at room temperature in the dark. Production of cAMP was determined using HitHunter™ cAMPXS kits (DiscoverX). ED buffer (20 μL) was then added to each well and the plates were incubated for 1 hour at room temperature in the dark. Subsequently, EA buffer (20 μL) was added to each well, and the plates were incubated for 1-18 hours at room temperature in the dark. Luminescence was measured using an EnVision Multilabel plate reader (Perkin Elmer). EC50 values were calculated using ADA data analyzer software.
Procedure for human GLP-1R: The cAMP protocol was as follows.
as §1

On to `CCCCCCCCCCCCCCCC(=O)N[C@@H](CCC(=O)NCCCC[C@H](NC(=O)[C@H](CC(=O)O)NC(=O)[C@H](CO)NC(=O)[C@@H](NC(=O)[C@H](Cc1ccccc1)NC(=O)[C@@H](NC(=O)CNC(=O)[C@H](CCC(N)=O)NC(=O)[C@@H](CO)NC(=O)[C@@H](N)Cc1c[nH]cn1)[C@@H](C)O)[C@@H](C)O)C(=O)N[C@@H](CO)C(=O)N[C@@H](CCCCN)C(=O)N[C@@H](Cc1ccc(O)cc1)C(=O)N[C@@H](CC(C)C)C(=O)N[C@@H](CC(=O)O)C(=O)N[C@@H](C)C(=O)N[C@@H](CCCNC(=N)N)C(=O)N[C@@H](C)C(=O)N[C@@H](C)C(=O)N[C@@H](CCC(N)=O)C(=O)N[C@@H](CC(=O)O)C(=O)N[C@@H](Cc1ccccc1)C(=O)N[C@H](C(=O)N[C@@H](CCC(N)=O)C(=O)N[C@@H](Cc1c[nH]c2ccccc12)C(=O)N[C@@H](CC(C)C)C(=O)N[C@@H](CC(C)C)C(=O)N[C@@H](CC(=O)O)C(=O)N[C@H](C(N)=O)[C@@H](C)O)C(C)C)C(=O)O` [SEQ ID NO: 6], for which the “weight loss, percent relative to vehicle” value in assay [1] (9 nmol/kg daily) is reported as “approximately 20%”. The compound further returned a body weight loss in assay [2] of 10.5 grams. For the same compound, the “decrease in ambient glucose compared to vehicle” value in assay [3] (9 nmol/kg, day 7 of dosing) was -60 mg/dL.
Take `CCCCCCCCCCCCCCCC(=O)N[C@@H](CCC(=O)N[C@@H](CCC(=O)NCCCC[C@H](NC(=O)[C@H](CC(=O)O)NC(=O)[C@H](CO)NC(=O)[C@@H](NC(=O)[C@H](Cc1ccccc1)NC(=O)[C@@H](NC(=O)CNC(=O)[C@H](CCC(N)=O)NC(=O)[C@@H](CO)NC(=O)[C@@H](N)Cc1c[nH]cn1)[C@@H](C)O)[C@@H](C)O)C(=O)N[C@@H](CO)C(=O)N[C@@H](CCCCN)C(=O)N[C@@H](Cc1ccc(O)cc1)C(=O)N[C@@H](CC(C)C)C(=O)N[C@@H](CC(=O)O)C(=O)N[C@H](C(=O)N[C@@H](CCCNC(=N)N)C(=O)N[C@@H](C)C(=O)N[C@@H](C)C(=O)N[C@@H](CCC(N)=O)C(=O)N[C@@H](CC(=O)O)C(=O)N[C@@H](Cc1ccccc1)C(=O)N[C@H](C(=O)N[C@@H](CCC(N)=O)C(=O)N[C@@H](Cc1c[nH]c2ccccc12)C(=O)N[C@@H](CC(C)C)C(=O)N[C@@H](CC(C)C)C(=O)N[C@@H](CC(=O)O)C(=O)N[C@H](C(N)=O)[C@@H](C)O)C(C)C)C(C)C)C(=O)O)C(=O)O` [SEQ ID NO: 8]: the results for the “weight loss, percent relative to vehicle” value in assay [1] (9 nmol/kg daily) and in assay [1] (15 nmol/kg daily) were “approximately 17%” and “approximately 25%”, respectively. Besides, in assay [2], the body weight loss is on record as 8 grams. In addition, in assay [3] (9 nmol/kg), the “change in ambient glucose compared to vehicle” value (“change in ambient glucose” for short) was -72 mg/dL.
For the compound `CCCCCCCCCCCCCCCC(=O)N[C@@H](CCC(=O)N[C@@H](CCC(=O)NCCCC[C@H](NC(=O)[C@H](CC(=O)O)NC(=O)[C@H](CO)NC(=O)[C@@H](NC(=O)[C@H](Cc1ccccc1)NC(=O)[C@@H](NC(=O)CNC(=O)[C@@H](NC(=O)C(C)(C)NC(=O)[C@@H](N)Cc1c[nH]cn1)C(C)C)[C@@H](C)O)[C@@H](C)O)C(=O)N[C@@H](CO)C(=O)N[C@@H](CCCCN)C(=O)N[C@@H](Cc1ccc(O)cc1)C(=O)N[C@@H](CC(C)C)C(=O)N[C@@H](CC(=O)O)C(=O)NC(C)(C)C(=O)N[C@@H](CCCNC(=N)N)C(=O)N[C@@H](C)C(=O)N[C@@H](C)C(=O)N[C@@H](CCC(N)=O)C(=O)N[C@@H](CC(=O)O)C(=O)N[C@@H](Cc1ccccc1)C(=O)N[C@H](C(=O)N[C@@H](CCC(N)=O)C(=O)N[C@@H](Cc1c[nH]c2ccccc12)C(=O)N[C@@H](CC(C)C)C(=O)N[C@@H](CCCC)C(=O)N[C@@H](CC(=O)O)C(=O)N[C@H](C(N)=O)[C@@H](C)O)C(C)C)C(=O)O)C(=O)O` [SEQ ID NO: 9], in assay [1] (9 nmol/kg daily), the “weight loss, percent relative to vehicle” value is listed as “approximately 5%”. This compound had a body weight loss in assay [2] of about 3 grams. In addition, the “change in ambient glucose” value in assay [3] (9 nmol/kg) is reported as “did not exhibit significant changes in ambient glucose”. The “decrease in ambient glucose compared to vehicle” value in assay [3] (25 nmol/kg, second day of dosing) was -75 mg/dL.
As to `CCCCCCCCCCCCCCCC(=O)N[C@@H](CCC(=O)N[C@@H](CCC(=O)NCCCC[C@H](NC(=O)[C@H](CC(=O)O)NC(=O)[C@H](CO)NC(=O)[C@@H](NC(=O)[C@H](Cc1ccccc1)NC(=O)[C@@H](NC(=O)CNC(=O)[C@H](CCC(N)=O)NC(=O)[C@H](C)NC(=O)[C@H](Cc1c[nH]cn1)NC(C)=O)[C@@H](C)O)[C@@H](C)O)C(=O)N[C@@H](CO)C(=O)N[C@@H](CCCCN)C(=O)N[C@@H](Cc1ccc(O)cc1)C(=O)N[C@@H](CC(C)C)C(=O)N[C@@H](CC(=O)O)C(=O)N[C@@H](CCC(=O)O)C(=O)N[C@@H](CCCNC(=N)N)C(=O)N[C@@H](C)C(=O)N[C@@H](C)C(=O)N[C@@H](CCC(N)=O)C(=O)N[C@@H](CC(=O)O)C(=O)N[C@@H](Cc1ccccc1)C(=O)N[C@H](C(=O)N[C@@H](CCC(N)=O)C(=O)N[C@@H](Cc1c[nH]c2ccccc12)C(=O)N[C@@H](CC(C)C)C(=O)N[C@@H](CC(C)C)C(=O)N[C@@H](CC(=O)O)C(=O)N[C@H](C(N)=O)[C@@H](C)O)C(C)C)C(=O)O)C(=O)O` [compound 12], at human GCGR, the “hGCGR/hGLP1R (hTone)” value is given as 1.00.
Take `CCCCCCCCCCCCCCCC(=O)N[C@@H](CCC(=O)N[C@@H](CCC(=O)NCCCC[C@H](NC(=O)[C@H](CC(=O)O)NC(=O)[C@H](CO)NC(=O)[C@@H](NC(=O)[C@H](Cc1ccc(F)cc1)NC(=O)[C@@H](NC(=O)CNC(=O)[C@H](CCC(N)=O)NC(=O)[C@@H](CO)NC(=O)[C@@H](N)Cc1c[nH]cn1)[C@@H](C)O)[C@@H](C)O)C(=O)N[C@@H](CO)C(=O)N[C@@H](CCCCN)C(=O)N[C@@H](Cc1ccc(O)cc1)C(=O)N[C@@H](CC(C)C)C(=O)N[C@@H](CC(=O)O)C(=O)N[C@@H](CCC(=O)O)C(=O)N[C@@H](CCCNC(=N)N)C(=O)N[C@@H](C)C(=O)N[C@@H](C)C(=O)N[C@@H](CCC(N)=O)C(=O)N[C@@H](CC(=O)O)C(=O)N[C@@H](Cc1ccccc1)C(=O)N[C@H](C(=O)N[C@@H](CCC(N)=O)C(=O)N[C@@H](Cc1c[nH]c2ccccc12)C(=O)N[C@@H](CC(C)C)C(=O)N[C@@H](CC(C)C)C(=O)N[C@@H](CC(=O)O)C(=O)N[C@H](C(N)=O)[C@@H](C)O)C(C)C)C(=O)O)C(=O)O` [compound 14]: the EC50 was determined as 0.06 nM on human GLP-1R and 0.05 nM on human GCGR. The “hGCGR/hGLP1R (hTone)” value at human GCGR is given as 0.93.
The matching figures for `CCCCCCCCCCCCCCCC(=O)N[C@@H](CCC(=O)N[C@@H](CCC(=O)NCCCC[C@H](NC(=O)[C@H](CC(=O)O)NC(=O)[C@H](CO)NC(=O)[C@@H](NC(=O)C(NC(=O)[C@@H](NC(=O)CNC(=O)[C@H](CCC(N)=O)NC(=O)[C@@H](CO)NC(=O)[C@@H](N)Cc1c[nH]cn1)[C@@H](C)O)C(O)c1ccccc1)[C@@H](C)O)C(=O)N[C@@H](CO)C(=O)N[C@@H](CCCCN)C(=O)N[C@@H](Cc1ccc(O)cc1)C(=O)N[C@@H](CC(C)C)C(=O)N[C@@H](CC(=O)O)C(=O)N[C@@H](CCC(=O)O)C(=O)N[C@@H](CCCNC(=N)N)C(=O)N[C@@H](C)C(=O)N[C@@H](C)C(=O)N[C@@H](CCC(N)=O)C(=O)N[C@@H](CC(=O)O)C(=O)N[C@@H](Cc1ccccc1)C(=O)N[C@H](C(=O)N[C@@H](CCC(N)=O)C(=O)N[C@@H](Cc1c[nH]c2ccccc12)C(=O)N[C@@H](CC(C)C)C(=O)N[C@@H](CC(C)C)C(=O)N[C@@H](CC(=O)O)C(=O)N[C@H](C(N)=O)[C@@H](C)O)C(C)C)C(=O)O)C(=O)O` (stereo partly drawn) [compound 19] (H-H[dS]QGT[X1]TSDK([γGlu-γGlu-Palmitoyl])SKYLDERAAQDFVQWLLDT-NH2; N-terminus assumed): 1.02 nM, 1.04 nM and 1.02.
On to “HsQGTFTSDK(γEγEC16)SKYLDVRRAQDFVQWLLDT-NH2 (H[dS]QGTFTSDK([γGlu-γGlu-C16])SKYLDVRRAQDFVQWLLDT-NH2; N-terminus assumed; SMILES CCCCCCCCCCCCCCCC(=O)N[C@@H](CCC(=O)N[C@@H](CCC(=O)NCCCC[C@H](NC(=O)[C@H](CC(=O)O)NC(=O)[C@H](CO)NC(=O)[C@@H](NC(=O)[C@H](Cc1ccccc1)NC(=O)[C@@H](NC(=O)CNC(=O)[C@H](CCC(N)=O)NC(=O)[C@@H](CO)NC(=O)[C@@H](N)Cc1c[nH]cn1)[C@@H](C)O)[C@@H](C)O)C(=O)N[C@@H](CO)C(=O)N[C@@H](CCCCN)C(=O)N[C@@H](Cc1ccc(O)cc1)C(=O)N[C@@H](CC(C)C)C(=O)N[C@@H](CC(=O)O)C(=O)N[C@H](C(=O)N[C@@H](CCCNC(=N)N)C(=O)N[C@@H](CCCNC(=N)N)C(=O)N[C@@H](C)C(=O)N[C@@H](CCC(N)=O)C(=O)N[C@@H](CC(=O)O)C(=O)N[C@@H](Cc1ccccc1)C(=O)N[C@H](C(=O)N[C@@H](CCC(N)=O)C(=O)N[C@@H](Cc1c[nH]c2ccccc12)C(=O)N[C@@H](CC(C)C)C(=O)N[C@@H](CC(C)C)C(=O)N[C@@H](CC(=O)O)C(=O)N[C@H](C(N)=O)[C@@H](C)O)C(C)C)C(C)C)C(=O)O)C(=O)O) [SEQ ID NO: 7]”, for which the “weight loss, percent relative to vehicle” value in assay [1] (9 nmol/kg daily) is reported as “approximately 5%”. The compound also came in with a body weight loss in assay [2] of about 3 grams. Also, the “change in ambient glucose” value in assay [3] (9 nmol/kg) was “did not exhibit significant changes in ambient glucose”.
